According to patent US7304090B2, “Inhibition of the cystic fibrosis transmembrane conductance regulator chloride channel” (The University of Bristol, priority 2000, dated 2007):

What was measured:
Type I MDCK cells = assay: Proliferation of MDCK cells (cell counting); type: cell-based, canine
Procedure: (§1) For cyst growth and cell proliferation experiments, we used Type I Madin-Darby canine kidney (MDCK) cells. We chose Type I MDCK cells because they form cysts when grown in collagen gels in the presence of cAMP agonists (26) and because they express the CFTR Cl^− channel (27). MDCK cells were cultured in MDCK media (a 1:1 mixture of Dulbecco's Modified Eagle Medium (DMEM) and Ham's F-12 nutrient medium supplemented with 100 U ml^−1 penicillin, and 100 μg ml^−1 streptomycin and either 10% fetal bovine serum (FBS; cyst growth) or 5% FBS and 1% insulin-transferrin-selenium-X (ITS-X) supplement (cell proliferation); all from Life Technologies Ltd, Paisley, UK) at 37° C. in a humidified atmosphere of 5% CO2.
To test the effect of CFTR modulators on the proliferation of MDCK cells, we used Type I MDCK cells grown in media containing 5% FBS and 1% ITS-X supplement. On day −1, MDCK cells were seeded at 7.5×10^4 cells ml^−1 in 35 mm dishes containing MDCK media with 1% FBS and 1% ITS-X supplement. On day 0, the concentration of FBS was reduced further to 0.01% and CFTR modulators added to the MDCK media. MDCK media containing CFTR modulators was changed every 2 days for a total period of 6 days. To determine the number of cells per 35 mm dish, Type I MDCK cells were harvested using trypsin (0.25% wt/vol), centrifuged at 1200 rpm for 5 min and resuspended in 1 ml of MDCK media before counting using a haemocytometer.

[1] = test system: Type I Madin-Darby canine kidney (MDCK) cells; assay: Cyst growth of MDCK cells in collagen gels with cAMP agonists; type: cell-based
Procedure: as §1
To grow cysts, MDCK cells were cultured in collagen gels using a modification of the method of Grantham et al. (26). Cells were trypsinized with 0.25% (wt/vol) trypsin for 30 minutes at 37° C., diluted with MDCK media containing 10% FBS to form a suspension of between 1-3×10^4 cells ml^−1, and aliquoted into individual wells of a 24-well plate (0.1 ml per well). Each well contained 0.4 ml of ice-cold Vitrogen (3.0 mg ml^−1 collagen; Cohesion Technologies Inc., Palo Alto, USA) supplemented with 10% (vol/vol) 10× minimum essential medium, 10 mM N-[2-hydroxyethyl]piperazine-N′-[2-ethanesulphonic acid] (Hepes), 27 mM NaHCO3, 100 U ml^−1 penicillin, and 100 μg ml^−1 streptomycin, and adjusted to pH 7.4 with NaOH. The 24-well plate was gently agitated to distribute cells throughout the Vitrogen and incubated in a water bath at 37° C. for 90 minutes to promote gelation of the Vitrogen.
After gelation, 1.5 ml MDCK media containing 10% FBS was added to each well of the 24-well plate. To promote cyst growth, we added cAMP agonists (forskolin (10 μM), 3-isobutyl-1-methylxanthine (IBMX; 100 μM), and 8-(4-chlorophenylthio) adenosine 3′:5′-cyclic monophosphate (CPT-cAMP; 500 μM)) to the MDCK media. Plates were maintained at 37° C. in a humidified atmosphere of 5% CO2 and the MDCK media containing cAMP agonists changed every three days.
Twelve days after seeding collagen gels with MDCK cells, cysts were readily detected at ×1000 magnification using an inverted microscope with phase contrast optics (Leica, model DMIL, Milton Keynes, UK). To test the effect of CFTR modulators on cyst growth, drugs were added to MDCK media in the continued presence of cAMP agonists. MDCK media containing cAMP agonists and CFTR modulators was changed every 3 days for a total period of 9 days. Photographs of individual cysts were taken before the addition of CFTR modulators and at three day intervals over the duration of the experiment. To identify individual cysts, each cyst was assigned a unique reference number using a grid placed below the 24-well plate.
The diameter of cysts was measured directly from photographs of cysts using images that had been magnified by identical amounts. By assuming that cysts are spherical in shape, we calculated cyst volume ( 4/3·π·r^3).

wild-type human CFTR = molecular target: T1, wild-type human CFTR (Homo sapiens, UniProt P13569); assay: CFTR Cl− channels recorded in excised inside-out membrane patches from C127 cells (patch-clamp); type: biochemical; settings: glibenclamide 50 μM
T1 construct: expressed in transfected cells
T1 sequence (P13569 whole entry): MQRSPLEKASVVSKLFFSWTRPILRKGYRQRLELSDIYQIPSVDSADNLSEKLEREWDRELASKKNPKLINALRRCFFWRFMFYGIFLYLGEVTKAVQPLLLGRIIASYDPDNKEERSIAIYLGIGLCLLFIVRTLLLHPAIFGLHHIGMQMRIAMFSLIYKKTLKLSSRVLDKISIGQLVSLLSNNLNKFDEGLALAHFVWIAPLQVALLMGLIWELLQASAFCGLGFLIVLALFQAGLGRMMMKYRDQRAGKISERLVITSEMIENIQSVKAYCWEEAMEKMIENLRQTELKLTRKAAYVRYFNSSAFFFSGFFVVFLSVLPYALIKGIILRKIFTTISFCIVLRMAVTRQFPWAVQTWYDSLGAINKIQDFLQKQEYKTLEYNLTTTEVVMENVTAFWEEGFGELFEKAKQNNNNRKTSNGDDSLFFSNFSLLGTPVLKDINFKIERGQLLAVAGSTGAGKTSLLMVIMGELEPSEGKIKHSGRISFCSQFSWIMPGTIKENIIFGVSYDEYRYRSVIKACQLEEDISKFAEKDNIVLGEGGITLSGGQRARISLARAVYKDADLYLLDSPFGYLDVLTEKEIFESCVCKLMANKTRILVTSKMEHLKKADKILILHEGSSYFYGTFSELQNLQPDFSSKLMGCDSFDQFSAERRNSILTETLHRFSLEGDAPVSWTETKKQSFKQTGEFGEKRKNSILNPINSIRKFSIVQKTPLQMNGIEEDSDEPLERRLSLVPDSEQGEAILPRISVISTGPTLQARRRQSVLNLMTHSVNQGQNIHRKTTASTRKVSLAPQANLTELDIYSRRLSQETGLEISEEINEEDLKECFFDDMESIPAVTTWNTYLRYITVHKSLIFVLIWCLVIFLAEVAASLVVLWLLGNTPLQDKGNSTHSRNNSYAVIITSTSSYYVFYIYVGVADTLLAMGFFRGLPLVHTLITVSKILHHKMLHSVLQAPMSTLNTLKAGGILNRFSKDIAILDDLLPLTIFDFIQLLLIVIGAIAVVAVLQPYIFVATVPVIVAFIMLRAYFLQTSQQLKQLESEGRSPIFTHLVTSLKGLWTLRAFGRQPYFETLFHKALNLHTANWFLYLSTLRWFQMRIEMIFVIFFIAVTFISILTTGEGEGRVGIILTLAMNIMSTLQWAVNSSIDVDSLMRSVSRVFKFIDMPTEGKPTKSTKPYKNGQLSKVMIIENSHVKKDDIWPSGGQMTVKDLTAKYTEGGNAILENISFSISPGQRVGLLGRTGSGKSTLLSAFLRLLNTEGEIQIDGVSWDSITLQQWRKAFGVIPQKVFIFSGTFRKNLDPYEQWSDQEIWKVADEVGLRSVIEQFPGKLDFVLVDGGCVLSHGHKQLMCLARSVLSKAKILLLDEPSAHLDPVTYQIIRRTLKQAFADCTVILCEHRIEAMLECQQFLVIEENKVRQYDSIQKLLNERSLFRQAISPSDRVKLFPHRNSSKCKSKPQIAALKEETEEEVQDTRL
Procedure: For electrophysiological experiments, we used mouse mammary epithelial cells (C127 cells) stably expressing wild-type human CFTR (12). C127 cells expressing wild-type CFTR were cultured as previously described (10). Cells were seeded onto glass coverslips and used within 48 h.
The established sign convention was used throughout; currents produced by positive charge moving from intra- to extracellular solutions (anions moving in the opposite direction) are shown as positive currents.
[…] […] All experiments were conducted at 37° C.
PKA was maintained in the intracellular solution for the duration of experiments. Unless otherwise stated, voltage was −50 mV.
In time course studies, each point is the average current for a 4 s period with data points collected continuously; no data were collected while solutions were changed. Average current (I) for a specific intervention was determined as the average of all the data points collected during the intervention. […] Mean data were fitted to a linear form of equation (1) using linear least-squares regression to yield Ki and n values.
To measure single-channel current amplitude (i), Gaussian distributions were fitted to current amplitude histograms. For open probability (Po) and kinetic analyses, lists of open and closed times were created using a half-amplitude crossing criterion for event detection. Transitions <1 ms in duration were excluded from the analyses. Po was calculated using the equation: Po=(T1+T2+ . . . +TN)/(NTtot), (2) where N is the number of channels; Ttot is the total time analysed, and T1 is the time that one or more channels are open, T2 is the time two or more channels are open and so on. Only membrane patches that contained a single active channel were used for single-channel kinetic analyses.
To investigate whether inhibition of CFTR by fluorescein derivatives was voltage dependent, we used voltage ramp protocols. Macroscopic current-voltage (I-V) relationships were obtained in the absence and presence of fluorescein derivatives by averaging currents generated by 15-30 ramps of voltage each of 2 s duration; holding voltage was −50 mV. Basal currents recorded in the absence of PKA and ATP were subtracted from those recorded in the absence and presence of fluorescein derivatives to determine the effect of these agents on CFTR Cl^− currents.

effect on channel block by phloxine B (20 μM) (wild-type human CFTR): potentiated channel block
SMILES: COc1ccc(Cl)cc1C(=O)NCCc1ccc(S(=O)(=O)NC(=O)NC2CCCCC2)cc1 [glibenclamide]
inhibition of cell growth in the presence of cAMP agonists (Type I MDCK cells): unaffected by cAMP agonists
rank order of prevention of cell growth (Type I MDCK cells): ouabain (1 μM)=phloxine B (40 μM)=genistein (100 μM)=NPPB (400 μM)>glibenclamide (100 μM)
cell growth (number of cells), day 0 to 6 (Type I MDCK cells; 100 μM): prevented cell growth
rank order of decrease of cyst volume [1]: glibenclamide (100 μM)≧ouabain (1 μM)≧NPPB (400 μM)≧genistein (100 μM)>bumetanide
cyst volume ([1]; 100 μM, day 21 vs day 12): decreased cyst volume
size of cysts (phase-contrast) ([1]; 100 μM, days 12 to 21): visible decrease in the size of cysts
